From patent US12552748B2, “Pyridine (thio)amides as fungicidal compounds” (Bayer Aktiengesellschaft, priority 2020, dated 2026)
Marks after values point to notes of the source that are not given here.

Assay: physchem
Assay type: physicochemical
Experimental: Measurement of Log P values as provided herein was performed according to EEC directive 79/831 Annex V.A8 by HPLC (High Performance Liquid Chromatography) on reversed phase columns with the following methods: […] If more than one Log P value is available within the same method, all the values are given and separated by “+”. Calibration was done with straight-chain alkan2-ones (with 3 to 16 carbon atoms) with known Log P values (measurement of Log P values using retention times with linear interpolation between successive alkanones). Lambda-max-values were determined using UV-spectra from 200 nm to 400 nm and the peak values of the chromatographic signals

LogP | Structure (SMILES)
3.91^[a] | Cc1ccc(CCNC(=O)c2cc(Cl)ncc2Oc2cccc(C#N)c2F)c(C)c1 [Compound I-126]
3.85^[a] | Cc1ccc(CCNC(=O)c2cc(Cl)ncc2Oc2cccc(C=O)c2F)c(C)c1 [Compound I-127]
4.71^[a] | Cc1ccc(CCNC(=O)c2cc(Cl)ncc2Oc2cccc(Cl)c2F)c(C)c1 [Compound I-128]
4.76^[a] | Cc1ccc(CCNC(=O)c2cc(Cl)ncc2Oc2cccc(C)c2F)c(C)c1 [Compound I-131]
4.26^[a] | COc1cccc(Oc2cnc(Cl)cc2C(=O)NCCc2ccc(C)cc2C)c1F [Compound I-132]
4.41^[a] | Cc1ccc(CCNC(=O)c2cc(Cl)ncc2Oc2ccccc2)c(C)c1 [Compound I-133]
4.78^[a] | Cc1ccc(CCNC(=O)c2cc(Cl)ncc2Oc2cccc(Br)c2F)c(C)c1 [Compound I-134]
5.23^[a] | CCc1cccc(Oc2cnc(Cl)cc2C(=O)NCCc2ccc(C)cc2C)c1 [Compound I-135]
4.43^[a] | Cc1ccc(CCNC(=O)c2cc(Cl)ncc2Oc2cccc(OC(F)F)c2)c(C)c1 [Compound I-136]
4.86^[a] | Cc1ccc(CCNC(=O)c2cc(Cl)ncc2Oc2cccc(Br)c2)c(C)c1 [Compound I-137]
3.88^[a] | Cc1ccc(CCNC(=O)c2cc(Cl)ncc2Oc2cccc(C3COC3)c2)c(C)c1 [Compound I-139]
5.01^[a] | Cc1ccc(CCNC(=O)c2cc(Cl)ncc2Oc2cccc(I)c2)c(C)c1 [Compound I-141]
4.20^[a] | COC(=O)c1cccc(Oc2cnc(Cl)cc2C(=O)NCCc2ccc(C)cc2C)c1 [Compound I-147]
5.45^[a] | Cc1ccc(CCNC(=O)c2cc(Cl)ncc2Oc2cccc3c2CCC3)c(C)c1 [Compound I-150]
4.72^[a] | Cc1ccc(CCNC(=O)c2cc(Cl)ncc2Oc2ccc(F)c(Cl)c2)c(C)c1 [Compound I-154]
4.33^[a] | COCc1cccc(Oc2cnc(Cl)cc2C(=O)NCCc2ccc(C)cc2C)c1 [Compound I-157]

Continued, compound first:

Structure (SMILES) | LogP
O=C(NCCc1ccc2c(c1)CCO2)c1cc(Cl)ncc1Oc1cccc(C(F)(F)F)c1 [Compound I-104] | 3.98^[a]
O=C(NCCc1ccc2c(c1)OCCO2)c1cc(Cl)ncc1Oc1cccc(C(F)(F)F)c1 [Compound I-105] | 3.84^[a]
CC(C)Oc1ccc(CCNC(=O)c2cc(Cl)ncc2Oc2cccc(C(F)(F)F)c2)cn1 [Compound I-106] | 4.08^[a]
O=C(NCCc1ccc(C(F)(F)F)cn1)c1cc(Cl)ncc1Oc1cccc(C(F)(F)F)c1 [Compound I-107] | 3.91^[a]
O=C(NCCc1ccc2c(c1)OCO2)c1cc(Cl)ncc1Oc1cccc(C(F)(F)F)c1 [Compound I-108] | 3.87^[a]
O=C(NCCc1cnc(C(F)(F)F)nc1)c1cc(Cl)ncc1Oc1cccc(C(F)(F)F)c1 [Compound I-110] | 3.57^[a]
Cc1ccc(CCNC(=O)c2cc(Cl)ncc2Oc2ccc(C(F)(F)F)c(Cl)c2)c(C)c1 [Compound I-111] | 4.48^[a]
Cc1ccc(CCNC(=O)c2cc(C(C)O)ncc2Oc2cccc(C(F)(F)F)c2)c(C)c1 (centres unmarked) [Compound I-112] | 3.67^[a]
Cc1ccc(CCNC(=O)c2cc(C(C)F)ncc2Oc2cccc(C(F)(F)F)c2)c(C)c1 (centres unmarked) [Compound I-114] | 4.62^[a]
Cc1ccc(CCNC(=O)c2cc(C(F)(F)F)ncc2Oc2cccc(C3CC3)c2F)c(C)c1 [Compound I-116] | 5.38^[a]
Cn1cc(-c2ccc(C(F)(F)CNC(=O)c3cc(Cl)ncc3Oc3cccc(C(F)F)c3)c(Cl)c2)cn1 [Compound I-117] | 3.64^[a]
COCCc1cc(C(=O)NCCc2ccc(C)cc2C)c(Oc2cccc(C(F)(F)F)c2)cn1 [Compound I-118] | 4.16^[a]
CC(=O)c1ccc(C(F)(F)CNC(=O)c2cc(Cl)ncc2Oc2cccc(C(F)F)c2)c(Cl)c1 [Compound I-119] | 3.81^[a]
CCOC(=O)c1ccc(C(F)(F)CNC(=O)c2cc(Cl)ncc2Oc2cccc(C(F)F)c2)c(Cl)c1 [Compound I-120] | 4.47^[a]
Cc1ccc(CCNC(=O)c2cc(C3CCOC3)ncc2Oc2cccc(C(F)(F)F)c2)c(C)c1 (centres unmarked) [Compound I-121] | 4.30^[a]
Cc1ccc(CCNC(=O)c2cc(C3CCCC3)ncc2Oc2cccc(C(F)(F)F)c2)c(C)c1 [Compound I-122] | 5.57^[a]
C=Cc1ccc(C(F)(F)CNC(=O)c2cc(Cl)ncc2Oc2cccc(C(F)F)c2)c(Cl)c1 [Compound I-123] | 4.47^[a]
C#Cc1cccc(Oc2cnc(Cl)cc2C(=O)NCCc2ccc(C)cc2C)c1 [Compound I-129] | 4.45^[a]
Cc1ccc(CCNC(=O)c2cc(Cl)ncc2Oc2cccc([N+](=O)[O-])c2)c(C)c1 [Compound I-130] | 4.08^[a]

Structure (SMILES) | LogP
C#Cc1ccc(C(F)(F)CNC(=O)c2cc(Cl)ncc2Oc2cccc(C(F)F)c2)c(Cl)c1 [Compound I-143] | 4.32^[a]
Cc1cccc(Oc2cnc(Cl)cc2C(=O)NCC(F)(F)c2ccc(Br)cc2Cl)c1 [Compound I-145] | 5.08^[a]
C=Cc1c(Cl)ncc(Oc2cccc(C(F)(F)F)c2)c1C(=O)NCC(F)(F)c1ccc(C)cc1C [Compound I-146] | 4.93^[a]
Cc1ccc(C(F)(F)CNC(=O)c2c(Oc3cccc(C(F)(F)F)c3)cnc(Cl)c2C2CC2)c(C)c1 [Compound I-149] | 5.04^[a]
Cc1ccc(CCNC(=O)c2cc(Cl)ncc2Oc2cccc(-c3ccccc3)c2)c(C)c1 [Compound I-151] | 5.44^[a]
CCN(CCc1ccccc1)C(=O)c1cc(Cl)ncc1Oc1cccc(C(F)(F)F)c1 [Compound I-152] | 4.44^[a]
Cc1ccc(C(F)(F)CNC(=O)c2c(Oc3cccc(C4CC4)c3F)cnc(Cl)c2Cl)c(C)c1 [Compound I-153] | 5.08^[a]
C=Cc1cccc(Oc2cnc(Cl)cc2C(=O)NCC(F)(F)c2ccc(C)cc2C)c1 [Compound I-155] | 4.96^[a]
N#Cc1ccc(C(F)(F)CNC(=O)c2cc(Cl)ncc2Oc2cccc(C(F)F)c2)c(Cl)c1 [Compound I-156] | 3.87^[a]
Cc1ccc(CCNC(=O)c2cc(Cl)nc(Cl)c2Oc2cccc(C(F)(F)F)c2)c(C)c1 [Compound I-158] | 5.14^[a]
Cc1ccc(CCNC(=O)c2cc(Cl)ncc2Oc2cccc(-n3ccc(C(F)(F)F)n3)c2)c(C)c1 [Compound I-159] | 5.03^[a]
CCc1cc(Oc2cnc(Cl)cc2C(=O)NCCc2ccc(C)cc2C)c(C(=O)OC)s1 [Compound I-162] | 4.51^[a]
Cc1ccc(C(F)(F)CNC(=O)c2cc(Cl)ncc2Oc2cncc(C(F)(F)F)c2)c(C)c1 [Compound I-163] | 4.15^[a]
O=C(c1cc(Cl)ncc1Oc1cccc(C(F)(F)F)c1)N(O)CCc1ccc(Cl)cc1 [Compound I-164] | 4.01^[a]
Cc1ccc(CCNC(=O)c2cc(Cl)ncc2Oc2ccc(OC(F)(F)F)cc2)c(C)c1 [Compound I-165] | 4.97^[a]
CCC(=O)N(CCc1ccccc1)C(=O)c1cc(Cl)ncc1Oc1cccc(C(F)(F)F)c1 [Compound I-166] | 5.08^[a]
Cc1ccc(CCNC(=O)c2cc(Cl)ncc2Oc2ccc3ccccc3c2)c(C)c1 [Compound I-168] | 5.03^[a]
Cc1ccc(C(F)(F)CNC(=O)c2c(Oc3cccc(C(F)(F)F)c3)cnc(Oc3cccc(C(F)(F)F)c3)c2-n2cccn2)c(C)c1 [Compound I-169] | 5.53^[a]
